According to ChEMBL document CHEMBL4732258, “Pyxinol bearing amino acid residues: Easily achievable and promising modulators of P-glycoprotein-mediated multidrug resistance” (Eur J Med Chem, 2021):
Activity calls are given as the source filed them. No cut-off for these calls is given here.

Key:
[1] = Antitumor activity against human KBV cells xenografted model assessed as reduction in tumor weight at 10 mg/kg in presence of 30 mg/kg paclitaxel; format: functional
KBV [2] = assay: Reversal of Pgp-mediated paclitaxel resistance in human KBV cells assessed as cell viability at 10 uM in presence of paclitaxel incubated for 72 hrs by MTT assay; format: cell-based
KBV [3] = assay: Reversal of Pgp-mediated multidrug resistance in human KBV cells assessed as fold change in paclitaxel IC50 at 10 uM after 72 hrs in presence of paclitaxel by MTT assay relative to control; format: cell-based
KBV [4] = assay: Reversal of Pgp-mediated multidrug resistance in human KBV cells assessed as fold change in vincristine IC50 at 10 uM after 72 hrs in presence of vincristine by MTT assay relative to control; format: cell-based
[5] = target: T1, Broad substrate specificity ATP-binding cassette transporter ABCG2 (Homo sapiens, UniProt Q9UNQ0); assay: Reversal of BCRP-mediated multidrug resistance in human KBV cells assessed as fold change in mitoxantrone IC50 at 10 uM after 72 hrs in presence of mitoxantrone by MTT assay; format: cell-based
T1 sequence (Q9UNQ0 whole entry): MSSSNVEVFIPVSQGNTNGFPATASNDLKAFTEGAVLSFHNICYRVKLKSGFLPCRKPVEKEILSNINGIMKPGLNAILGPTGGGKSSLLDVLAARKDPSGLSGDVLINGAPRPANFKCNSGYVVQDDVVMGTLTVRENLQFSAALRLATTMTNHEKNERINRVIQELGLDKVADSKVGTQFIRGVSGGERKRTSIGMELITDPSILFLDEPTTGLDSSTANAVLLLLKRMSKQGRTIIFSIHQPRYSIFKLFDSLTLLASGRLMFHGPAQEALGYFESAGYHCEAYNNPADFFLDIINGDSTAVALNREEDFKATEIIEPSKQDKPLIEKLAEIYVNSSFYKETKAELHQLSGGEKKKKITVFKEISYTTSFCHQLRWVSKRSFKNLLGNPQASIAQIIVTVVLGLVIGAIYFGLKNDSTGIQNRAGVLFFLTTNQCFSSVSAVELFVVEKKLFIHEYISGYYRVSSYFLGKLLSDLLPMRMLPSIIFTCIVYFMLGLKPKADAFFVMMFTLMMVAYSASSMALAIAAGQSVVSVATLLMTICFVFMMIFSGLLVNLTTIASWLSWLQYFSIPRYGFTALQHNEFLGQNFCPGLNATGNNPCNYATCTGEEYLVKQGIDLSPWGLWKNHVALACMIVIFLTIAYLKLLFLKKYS

Homo sapiens = species: Homo sapiens; assay: Modulation of Pgp-ATPase activity (unknown origin) assessed as fold increase in ATP consumption at 0.5 mM preincubated for 5 mins followed by Mg-ATP addition and measured after 45 mins by microplate reader analysis; details: filed as modulator, time 50.0 min
[6] = Induction of cell cycle arrest in human KBV cells assessed as accumulation at sub-G1 phase at 10 uM after 24 hrs by PI/RNaseA staining based flow cytometric analysis (reference value: 4.26 +/- 0.35%); format: functional
[7] = Induction of cell cycle arrest in human KBV cells assessed as accumulation at G1/G0 phase at 10 uM after 24 hrs by PI/RNaseA staining based flow cytometric analysis (reference value: 49.09 +/- 0.35%); format: functional
[8] = Induction of cell cycle arrest in human KBV cells assessed as accumulation at S phase at 10 uM after 24 hrs by PI/RNaseA staining based flow cytometric analysis (reference value: 11.32 +/- 0.04%); format: functional
[9] = Induction of cell cycle arrest in human KBV cells assessed as accumulation at G2/M phase at 10 uM after 24 hrs by PI/RNaseA staining based flow cytometric analysis (reference value: 33.81 +/- 0.57%); format: functional
[10] = Induction of cell cycle arrest in human KBV cells assessed as accumulation at sub-G1 phase at 10 uM after 24 hrs in presence of 0.1 uM paclitaxel by PI/RNaseA staining based flow cytometric analysis (reference value: 5.83 +/- 0.31%); format: functional
[11] = Induction of cell cycle arrest in human KBV cells assessed as accumulation at G1/G0 phase at 10 uM after 24 hrs in presence of 0.1 uM paclitaxel by PI/RNaseA staining based flow cytometric analysis (reference value: 50.74 +/- 0.07%); format: functional
[12] = Induction of cell cycle arrest in human KBV cells assessed as accumulation at S phase at 10 uM after 24 hrs in presence of 0.1 uM paclitaxel by PI/RNaseA staining based flow cytometric analysis (reference value: 13.06 +/- 0.39%); format: functional
[13] = Induction of cell cycle arrest in human KBV cells assessed as accumulation at G2/M phase at 10 uM after 24 hrs in presence of 0.1 uM paclitaxel by PI/RNaseA staining based flow cytometric analysis (reference value: 28.03 +/- 0.95%); format: functional
[14] = Cytotoxicity against human KBV cells assessed as cell viability at 10 uM incubated for 72 hrs by MTT assay; format: cell-based; details: read-out: Activity
KBV [15] = assay: Reversal of Pgp-mediated paclitaxel resistance in human KBV cells assessed as cell viability at 5 uM in presence of paclitaxel incubated for 72 hrs by MTT assay; format: cell-based
KBV [16] = assay: Reversal of Pgp-mediated multidrug resistance in human KBV cells assessed as fold change in paclitaxel IC50 at 5 uM after 72 hrs in presence of paclitaxel by MTT assay relative to control; format: cell-based
KBV [17] = assay: Reversal of Pgp-mediated multidrug resistance in human KBV cells assessed as fold change in vincristine IC50 at 5 uM after 72 hrs in presence of vincristine by MTT assay relative to control; format: cell-based
KBV [18] = assay: Reversal of P-gp mediated drug efflux in human KBV cells assessed as increase in intracellular Rhodamine123 accumulation preincubated for 2 hrs followed by Rh123 addition measured after 0.5 hr by flow cytometry analysis; format: cell-based; details: filed as modulator, dose 2-10 µM, time 2.5 hrs
[19] = target: T1, Broad substrate specificity ATP-binding cassette transporter ABCG2; assay: Reversal of BCRP-mediated multidrug resistance in human KBV cells assessed as fold change in mitoxantrone IC50 at 5 uM after 72 hrs in presence of mitoxantrone by MTT assay; format: cell-based
KBV [20] = assay: Effect on Pgp protein expression in human KBV cells at 5 to 10 uM after 24 hrs by Western blot analysis; format: functional, cell-based; details: dose 5-10 µM
[21] = Induction of cell cycle arrest in human KBV cells assessed as accumulation at sub-G1 phase at 5 uM after 24 hrs in presence of 0.1 uM paclitaxel by PI/RNaseA staining based flow cytometric analysis (reference value: 5.83 +/- 0.31%); format: functional
[22] = Induction of cell cycle arrest in human KBV cells assessed as accumulation at G1/G0 phase at 5 uM after 24 hrs in presence of 0.1 uM paclitaxel by PI/RNaseA staining based flow cytometric analysis (reference value: 50.74 +/- 0.07%); format: functional
[23] = Induction of cell cycle arrest in human KBV cells assessed as accumulation at S phase at 5 uM after 24 hrs in presence of 0.1 uM paclitaxel by PI/RNaseA staining based flow cytometric analysis (reference value: 13.06 +/- 0.39%); format: functional
[24] = Induction of cell cycle arrest in human KBV cells assessed as accumulation at G2/M phase at 5 uM after 24 hrs in presence of 0.1 uM paclitaxel by PI/RNaseA staining based flow cytometric analysis (reference value: 28.03 +/- 0.95%); format: functional

| SMILES | Activity (KBV [2]; filed as modulator) [%] | fold change (FC) (KBV [3]) | viability at 72 h, 10 µM [14] [%] | Activity (KBV [15]; filed as modulator) [%] | fold change (FC) (KBV [16]) | Activity (KBV [15]) [%] | further results |
| --- | --- | --- | --- | --- | --- | --- | --- |
| CC(C)(C)OC(=O)NCCCCCC(=O)N[C@H]1CC[C@]2(C)[C@H]3C[C@@H](O)[C@@H]4[C@@H]([C@]5(C)CC[C@H](C(C)(C)O)O5)CC[C@@]4(C)[C@]3(C)CC[C@H]2C1(C)C |  |  |  |  |  |  | inhibition in vivo at 10 mg/kg [1]: 53.7% |
| COc1ccc(CCN(C)CCCC(C#N)(c2ccc(OC)c(OC)c2)C(C)C)cc1OC (stereo not drawn) | 28 | 40 |  |  |  |  | fold change (FC) (KBV [4]): 16; fold change (FC) [5]: 1; fold change (FC) (Homo sapiens): 5.6; Activity [6]: 4.69%; Activity [7]: 51.35%; Activity [8]: 11.44%; Activity [9]: 31.36%; Activity [10]: 18.47%; Activity [11]: 11.1%; Activity [12]: 11.57%; Activity [13]: 57.42% |
| CSCC[C@H](NC(=O)OC(C)(C)C)C(=O)O[C@H]1CC[C@]2(C)[C@H]3C[C@@H](O)[C@@H]4[C@@H]([C@]5(C)CC[C@H](C(C)(C)O)O5)CC[C@@]4(C)[C@]3(C)CC[C@H]2C1(C)C | 21 | 59 | 120 | 26 | 25 |  | fold change (FC) (KBV [17]): 3; fold change (FC) (KBV [4]): 8; Activity (KBV [18]): Dose-dependent effect; fold change (FC) [19]: 1.4; fold change (FC) [5]: 1.6; fold change (FC) (Homo sapiens): 6; Activity (KBV [20]): inactive; Activity [6]: 3.31%; Activity [7]: 42.81%; Activity [8]: 13.67%; Activity [9]: 38.79%; Activity [21]: 19.8%; Activity [22]: 14%; Activity [23]: 12.94%; Activity [24]: 51.66%; Activity [10]: 22.66%; Activity [11]: 13.75%; Activity [12]: 11.1%; Activity [13]: 51.06% |
| CC(C)(O)[C@@H]1CC[C@@](C)([C@H]2CC[C@]3(C)[C@@H]2[C@H](O)C[C@@H]2[C@@]4(C)CC[C@H](OC(=O)[C@@H](N)Cc5c[nH]c6ccccc56)C(C)(C)[C@@H]4CC[C@]23C)O1 | 27 |  | 52 | 30 |  |  |  |
| CC(C)(O)[C@@H]1CC[C@@](C)([C@H]2CC[C@]3(C)[C@@H]2[C@H](O)C[C@@H]2[C@@]4(C)CC[C@H](O)C(C)(C)[C@@H]4CC[C@]23C)O1 |  |  | 81 |  |  | 74 | Activity (KBV [2]): 72% |
| C[C@@H](OCc1ccccc1)[C@H](N)C(=O)O[C@H]1CC[C@]2(C)[C@H]3C[C@@H](O)[C@@H]4[C@@H]([C@]5(C)CC[C@H](C(C)(C)O)O5)CC[C@@]4(C)[C@]3(C)CC[C@H]2C1(C)C | 18 |  | 20 | 31 |  |  |  |
| CC(C)(C)OC(=O)C[C@H](NC(=O)OC(C)(C)C)C(=O)O[C@H]1CC[C@]2(C)[C@H]3C[C@@H](O)[C@@H]4[C@@H]([C@]5(C)CC[C@H](C(C)(C)O)O5)CC[C@@]4(C)[C@]3(C)CC[C@H]2C1(C)C | 20 |  | 85 | 32 |  |  |  |
| CSCC[C@H](NC(=O)OC(C)(C)C)C(=O)O[C@H]1CC[C@]2(C)[C@H]3C[C@@H](O)[C@@H]4[C@@H]([C@]5(C)CC[C@@H](C(C)(C)O)O5)CC[C@@]4(C)[C@]3(C)CC[C@H]2C1(C)C | 16 | 51 | 88 | 19 | 18 |  | fold change (FC) (KBV [17]): 5; fold change (FC) (KBV [4]): 14; fold change (FC) [19]: 0.8; fold change (FC) [5]: 1.2 |
| CC(C)[C@H](N)C(=O)O[C@H]1CC[C@]2(C)[C@H]3C[C@@H](O)[C@@H]4[C@@H]([C@]5(C)CC[C@@H](C(C)(C)O)O5)CC[C@@]4(C)[C@]3(C)CC[C@H]2C1(C)C | 25 |  | 96 | 49 |  |  |  |
| CC(C)(O)[C@@H]1CC[C@@](C)([C@H]2CC[C@]3(C)[C@@H]2[C@H](O)C[C@@H]2[C@@]4(C)CC[C@H](OC(=O)[C@@H](N)CCC(=O)O)C(C)(C)[C@@H]4CC[C@]23C)O1 |  |  | 112 |  |  | 95 | Activity (KBV [2]): 92% |
| CC(C)(C)OC(=O)N[C@@H](Cc1ccc(OC(C)(C)C)cc1)C(=O)O[C@H]1CC[C@]2(C)[C@H]3C[C@@H](O)[C@@H]4[C@@H]([C@]5(C)CC[C@@H](C(C)(C)O)O5)CC[C@@]4(C)[C@]3(C)CC[C@H]2C1(C)C | 22 |  | 104 |  |  | 78 |  |
| CSCC[C@H](N)C(=O)O[C@H]1CC[C@]2(C)[C@H]3C[C@@H](O)[C@@H]4[C@@H]([C@]5(C)CC[C@H](C(C)(C)O)O5)CC[C@@]4(C)[C@]3(C)CC[C@H]2C1(C)C | 23 | 34 | 90 | 26 | 17 |  |  |
| CSCC[C@H](N)C(=O)O[C@H]1CC[C@]2(C)[C@H]3C[C@@H](O)[C@@H]4[C@@H]([C@]5(C)CC[C@@H](C(C)(C)O)O5)CC[C@@]4(C)[C@]3(C)CC[C@H]2C1(C)C | 31 | 6 | 100 |  | 0.4 | 56 |  |
